Assays:
[1] = test system: 5'-nucleotidase from Crotalus adamenteus; assay: Enzymatic cleavage by 5'-nucleotidase; format: in vitro ADME; conditions: pH 9.0, 24 h, 37° C.; for hydrolysis by 5'-nucleotidase: 2 mg enzyme
Description: (§1) Enzymatic cleavage of the phosphodiester bond of the conjugates was studied by incubating the conjugates (5 μmol) with various enzymes (1.5-3 mg) in appropriate buffer and with plasma (final volume 0.5 ml). An aliquot (200 μl) of the 24 h incubation mixtures was streaked on Whatman 3 MM paper (23×57 cm) with the authentic markers and the paper was developed in Solvent A. The bands were characterized and analyzed semi-quantitatively by UV estimation of the chromatographs. […] The conjugates also remained 60-85 percent intact during the incubation with baboon plasma at 37° C. for 24 h. From the results of these tests, conjugates of this type appear capable of serving as sustained release froms of the parent steroid and nucleoside components thereof.
The conjugate (5 μmol) was incubated with 1 M Tris-HCl, pH 9.0 and 0.05 M MgSO4 (0.05 ml) and purified 5'-nucleotidase from Crotalus adamenteus (2 mg., Sigma Chemical Co.) in 0.45 ml. of H2 O for 24 h at 37° C.

[2] = Incubation with fresh baboon plasma; format: in vitro ADME; conditions: 37° C.; for metabolised at 24 h: 0.5 ml fresh baboon plasma, read-out: percent hydrolyzed in plasma; for remaining at 24 h: read-out: remaining conjugate among products
Description: as §1
The conjugate (5 μmol) was incubated with 0.5 ml of fresh baboon plasma at 37° C. for 24 h. 39 percent of the pred-p-ara-C (I) was hydrolyzed, the products being pred-p-ara-C (44 percent), ara-UMP (7 percent), ara-U (21 percent) and prednisolone (28 percent). Only 15 percent of the prednisone-p-ara-C (II) was hydrolyzed, the products being prednisone-p-ara-C (74 percent), ara-UMP (13 percent) and prednisone (13 percent).

[3] = test system: i.p. implanted L1210 leukemia; assay: Comparison of conjugates and ara-C plus steroid combinations, i.p. implanted L1210 leukemic mice; format: in vivo
Description: Each mouse received 1×10^6 cells intraperitoneally. Doses were administered i.p. once daily to groups of 8 mice (avg. wt. 20 g) for 5 consecutive days beginning 24 hours after tumor implantation. In case of the combination, ara-C and the steroid were given at the same molar concentrations present in the conjugates. Mean survival days were calculated by the equation appearing in the NCI protocol; T/C ratios are reported in percent, i.e (treated/control)×100.

[4] = test system: mouse leukemia L-1210 cells; assay: Antiproliferative activity in vitro, viability of L-1210 cells in culture; format: cell-based; conditions: for antiproliferative activity compared with ara-CMP and ara-C: 72 h; for IC50: Mus musculus, L1210, 72 h, read-out: Concentration (μM) for 50 percent loss of viability at 72 hours (ED50)
Description: The antiproliferative activity of the conjugates, ara-C, ara-CMP and the steroids was determined by measuring their effects against mouse leukemia L-1210 cells in culture. The assay was performed in test tubes without agitation according to the procedure described by Hong et al. in J. Med. Chem. 16: 139 (1973). After 24, 48 and 72 h, viable cell counts were performed on the cultures which had been incubated with compounds in various concentrations and the concentration of each compound required to produce a 50 percent inhibition of growth (ED50) after 72 h was determined by interpolation using the method described by Tritsch et al. in Cancer Biochem. Biophys. 2: 87 (1977).

[5] = test system: crude wheat germ acid phosphatase; assay: Enzymatic cleavage by acid phosphatase; format: in vitro ADME; conditions: pH 4.8, 25° C., 24 h; for percent hydrolyzed by acid phosphatase: 3 mg enzyme
Description: as §1
The conjugate (5 μmol) was incubated with 0.15 M NaOAc, pH 4.8 (0.05 ml) and crude wheat germ acid phosphatase (3 mg., Sigma Chemical Co.) in 0.45 ml. of H2 O at 25° C. for 24 h. Pred-p-ara-C (I) was 86 percent hydrolyzed, the products being pred-p-ara-C (8 percent), ara-CMP (5 percent), ara-C (42 percent) and prednisolone (45 percent). Prednisone-p-ara-C (II) was 88 percent hydrolyzed, the products being prednisone-p-ara-C (7 percent), ara-CMP (4 percent), ara-C (43 percent) and prednisone (46 percent).

[6] = test system: i.p. implanted L-1210 leukemia; assay: Antitumor activity against i.p. implanted L-1210 leukemia in mice; format: in vivo; conditions: for response vs control in vivo at 25 mg/kg: read-out: Percent T/C (mean survival days treated/control × 100), 25 mg/kg/day × 5 i.p.; for response vs control in vivo at 50 mg/kg: read-out: Percent T/C (mean survival days treated/control × 100), 50 mg/kg/day × 5 i.p.; for response vs control in vivo at 75 mg/kg: read-out: Percent T/C (mean survival days treated/control × 100), 75 mg/kg/day × 5 i.p.; for response vs control in vivo at 100 mg/kg: read-out: Percent T/C (mean survival days treated/control × 100), 100 mg/kg/day × 5 i.p.; for ascitic fluid at the end of the dosage period (5th day) / day on which mice started to accumulate ascitic fluid: doses between 25 and 75 mg/kg/day
Description: The ascites cell form of L-1210 leukemia, grown in C3 D2 F1 /J female mice (supplied by Jackson Labs) were employed. The assay was performed according to National Cancer Institute (NCI) protocol 1.100 described by R. I. Gerau et al., Cancer Chemother. Rep. (Part 3) 3: (2): 7, 47 (1972) with a slight modification. Intraperitoneal implantation of 1×10^6 cells in 0.5-ml suspension to the control and the treated groups (each group comprised 8 C3 D2 F1 /J female mice, average wt 20 g) was carried out using donor mice (DBA/2Ha, supplied by Roswell Park Memorial Institute) bearing 3 day tumor growths. Compounds were dissolved in 0.9 percent NaCl and a 0.5 ml dose was administered intraperitoneally once daily. Treatment began 24 h after implantation and continued for 5 consecutive days. Control animals received a 0.5 ml injection of saline. Testing was followed as described in the NCI protocol and evaluated by recording the survival time according to the formula appearing in protocol 11.

[7] = test system: phosphodiesterase I from Crotalus adamenteus; assay: Enzymatic cleavage of the phosphodiester bond by phosphodiesterase I; format: in vitro ADME; conditions: pH 8.8, 24 h, 37° C.; for hydrolysis by phosphodiesterase I: 5 μmol conjugate, 1.5 mg enzyme
Description: as §1
The conjugate (5 μmol) was incubated with 1 M Tris-HCl, pH 8.8 (0.05 ml) and purified phosphodiesterase I from Crotalus adamenteus (1.5 mg., Sigma Chemical Co.) in 0.45 ml. of H2 O for 24 h at 37° C.

Row | Compound | hydrolysis by 5'-nucleotidase [1] | product ara-C [1] | product prednisolone or prednisone [1] | metabolised at 24 h [2] | product ara-UMP ([2]; baboon plasma, 24 h) | product steroid (prednisolone or prednisone) ([2]; baboon plasma, 24 h) | remaining at 24 h ([2]; baboon plasma) | antiproliferative activity compared with ara-CMP and ara-C [4] | IC50 [4] | percent hydrolyzed by acid phosphatase [5] | product ara-C [5] | product ara-CMP [5] | product steroid (prednisolone or prednisone) [5] | remaining conjugate among products [5] | Mean Survival Days, Treated ([6]; 25 mg/kg/day × 5 i.p.) | Percent T/C (mean survival days treated/control × 100) ([6]; 25 mg/kg/day × 5 i.p.) | Mean Survival Days, Treated ([6]; 50 mg/kg/day × 5 i.p.) | Mean Survival Days, Treated ([6]; 75 mg/kg/day × 5 i.p.) | Mean Survival Days, Treated ([6]; 100 mg/kg/day × 5 i.p.) | response vs control in vivo at 25 mg/kg ([6]; Mus musculus, L1210, ip) | other results
1 | C[C@]12C=CC(=O)C=C1CC[C@@H]1[C@@H]2[C@@H](O)C[C@@]2(C)[C@H]1CC[C@]2(O)C(=O)CO[P+]([O-])(O)OC[C@H]1O[C@@H](n2ccc(N)nc2=O)[C@@H](O)[C@@H]1O (stereo partly drawn) [Pred-p-ara-C (I), 5'-(Prednisolone-21-phosphoryl)-1-β-D-arabinofuranosylcytosine] | hydrolyzed completely | 50% | 50% | 39% | 7% | 28% | 44% | activity comparable to ara-CMP | 0.05 µM | 86% | 42% | 5% | 45% | 8% | 14.63 days | 154% | 19.13 days | 16.88 days | 11.74 days | 154% | product ara-U ([2]; baboon plasma, 24 h): 21%; Survival Days Mean (Treated) ([3]; 75.0 μmole/kg/day × 5): 19.13 days; Weight change on Day 8 (g/mouse) ([3]; 75.0 μmole/kg/day × 5 (each, for combinations)): -0.28 g/mouse; T/C ([3]; 114.7 μmol/kg/day): 178%; response vs control in vivo at 75 µmol/kg ([3]; Mus musculus, L1210, ip, 75.0 μmole/kg/day × 5, read-out: % T/C): 201%; Mean Survival Days, Treated ([6]; 40 mg/kg/day × 5 i.p.): 15.25 days; response vs control in vivo at 40 mg/kg ([6]; Mus musculus, L1210, ip, read-out: Percent T/C (mean survival days treated/control × 100), 40 mg/kg/day × 5 i.p.): 174%; response vs control in vivo at 50 mg/kg ([6]; Mus musculus, L1210, ip): 201%; response vs control in vivo at 75 mg/kg ([6]; Mus musculus, L1210, ip): 178%; response vs control in vivo at 100 mg/kg ([6]; Mus musculus, L1210, ip): 136%; ascitic fluid at the end of the dosage period (5th day) [6]: no ascitic fluid; day on which mice started to accumulate ascitic fluid [6]: 15 days; hydrolysis by phosphodiesterase I [7]: hydrolyzed completely; product ara-C [7]: 10%; product ara-CMP [7]: 40%; product prednisolone or prednisone [7]: 50%
2 | C[C@]12C=CC(=O)C=C1CC[C@@H]1[C@@H]2C(=O)C[C@@]2(C)[C@H]1CC[C@]2(O)C(=O)CO[P+]([O-])(O)OC[C@H]1O[C@@H](n2ccc(N)nc2=O)[C@@H](O)[C@@H]1O (stereo partly drawn) [Prednisone-p-ara-C (II), 5'-(Prednisone-21-phosphoryl)-1-β-D-arabinofuranosylcytosine] | hydrolyzed completely | 50% | 50% | 15% | 13% | 13% | 74% | less active than both ara-CMP and ara-C | 0.5 µM | 88% | 43% | 4% | 46% | 7% | 14.63 days | 154% | 18.13 days | 14.50 days | 10.88 days | 154% | Survival Days Mean (Treated) ([3]; 75.4 μmole/kg/day × 5): 18.13 days; Weight change on Day 8 (g/mouse) ([3]; 75.4 μmole/kg/day × 5): -0.30 g/mouse; response vs control in vivo at 75.4 µmol/kg ([3]; Mus musculus, L1210, ip, 75.4 μmole/kg/day × 5, read-out: % T/C): 210%; Percent T/C (mean survival days treated/control × 100) ([6]; 50 mg/kg/day × 5 i.p.): 210%; Percent T/C (mean survival days treated/control × 100) ([6]; 100 mg/kg/day × 5 i.p.): 124%; Mean Survival Days, Treated ([6]; 200 mg/kg/day × 5 i.p.): 9.13 days; response vs control in vivo at 50 mg/kg ([6]; Mus musculus, L1210, ip): 210%; response vs control in vivo at 75 mg/kg ([6]; Mus musculus, L1210, ip): 153%; response vs control in vivo at 100 mg/kg ([6]; Mus musculus, L1210, ip): 124%; response vs control in vivo at 200 mg/kg ([6]; Mus musculus, L1210, ip, read-out: Percent T/C (mean survival days treated/control × 100), 200 mg/kg/day × 5 i.p.): 104%; ascitic fluid at the end of the dosage period (5th day) [6]: no ascitic fluid; day on which mice started to accumulate ascitic fluid [6]: 15 days; hydrolysis by phosphodiesterase I [7]: hydrolyzed completely; product ara-C [7]: 10%; product ara-CMP [7]: 40%; product prednisolone or prednisone [7]: 50%

— US4283394A, “Cytotoxic nucleoside-corticosteroid phosphodiesters” (priority 1979, dated 1981)
